Laboratory results as given in patent EP1674470A1, “Sulfonamido-macrocycles as Tie2 inhibitors” (Schering Aktiengesellschaft, priority 2004, dated 2006).

Tested on: DU 145
Experiment: Proliferation test (cytotoxicity assay, crystal violet staining)
Type: cell-based
Settings: Homo sapiens; cytotoxicity assay using the cell line DU 145
Protocol: Biological experiment 3: Proliferation test
To examine cell toxicity a cell proliferation test were established.
With the cell proliferation test different tumour cell lines (e.g. Du 145) can be examined. The cells were dispensed in RPMI 1640 culture medium, supplied with 10 % (v/v) fetal calf serum plus 1 % (v/v) Penicillin/Streptomycin solution at a cell density of 2.000 cell/100µL medium/per well (96well plate). After three hours the cells were washed with PBS (containing calcium and magnesium). 100 µl of culture medium above with 0.1 % (v/v) fetal calf serum was added and cultured at 37°C and 5% CO2-atmosphere. Next day compounds of the present invention diluted in DMSO for appropriate concentrations were added and further 100 µL culture medium 0.5 % (v/v) fetal calf serum. After 5 days cell culturing at 37°C and 5% CO2-atmosphere cells were washed with PBS. 20 µL of glutaraldehyde solution (11 % (v/v)) is added and the cells were slightly shaken at room temperature for 15 min. After that the cell were washed 3 times and dried in the air. 100 µL of crystal violet solution (0.1 % at pH 3.5) were added and the cells were shaken for 30 min. The cells were washed with tap water and air-dried. The colour is dissolved with 100 µL of acetic acid (10 % (v/v)) under strong shaking for 5 min. The absorption was measured at 595 nm wavelength.

SMILES	IC50
COC(=O)c1ccc(-c2cnc3nc2NCCCNS(=O)(=O)c2cccc(c2)N3)cc1 [Example Compound 1.1, methyl 4-[4,4-dioxo-4λ^6-thia-2,5,9-triaza-1(2,4)-pyrimidina-3(1,3)-benzenacyclononaphan-1^5-yl]benzoate]	> 1000 nM
CC(=O)c1ccc(-c2cnc3nc2NCCCNS(=O)(=O)c2cccc(c2)N3)cc1 [Example Compound 1.2, 1-[4-[4,4-dioxo-4λ^6-thia-2,5,9-triaza-1(2,4)-pyrimidina-3(1,3)-benzenacyclononaphan-1^5-yl]phenyl]ethanone]	> 1000 nM
O=S1(=O)NCCCNc2nc(ncc2-c2ccccc2)Nc2cccc1c2 [Example Compound 1.3, 1^5-phenyl-4-thia-2,5,9-triaza-1(2,4)-pyrimidina-3(1,3)-benzenacyclononaphane 4,4-dioxide]	> 1000 nM
COc1ccc(-c2cnc3nc2NCCCNS(=O)(=O)c2cccc(c2)N3)cc1 [Example Compound 1.5, 1^5-(4-methoxyphenyl)-4-thia-2,5,9-triaza-1(2,4)-pyrimidina-3(1,3)-benzenacyclononaphane 4,4-dioxide]	> 1000 nM
